According to patent publication US20250161228A1, “COMPOSITIONS COMPRISING ULTRAFINE BUBBLES AND METHODS OF USING THEREOF IN A METHOD OF PRODUCING AND DELIVERING ACTIVE PHARMACEUTICAL INGREDIENTS AND OTHER DISSOLVED SOLUTES” (Hydrosome IP, LLC, priority 2023, published 2025):

Test system: Human embryonic kidney (HEK) cells
Test: Intracellular zinc uptake study, colorimetric assay at 540 nm
Type: cell-based
Protocol: Human embryonic kidney (HEK) cells were treated with a composition prepared in accordance with the disclosure, the composition comprising zinc in a Cellular Hydration Water Advanced Zinc Formulation (Zinc Formulation) to test intracellular zinc uptake in vitro. The composition comprised 93 micromolar zinc (II) ions. The HEK cells were treated with compositions comprising 10%, 50%, or 100% Zinc Formulation. Zinc content was measured at 15, 30, 45, and 60 minutes using a colorimetric assay measuring light absorbance at 540 nm. The changes in intracellular zinc content were compared to a control group of HEK cells treated with a ZnSO4 solution.

O=S(=O)([O-])[O-].[Zn+2] [ZnSO4]
increase in intracellular zinc content (10% composition or its ZnSO4 control, 30 minutes): 20.4% | increase in intracellular zinc content (50% composition or its ZnSO4 control, 15 minutes): 42% | increase in intracellular zinc content (50% composition or its ZnSO4 control, 30 minutes): 29.6% | increase in intracellular zinc content (50% composition or its ZnSO4 control, 60 minutes): 42.2%
